Experimental data from publication PMC12673918, “Design, Synthesis, and Selective Antiproliferative Activity of Indolizine Derivatives as Microtubule Destabilizers” (Archiv Der Pharmazie, 2025).
Like-named read-outs stand apart in the source and are kept apart here.

Columns and labels:
Assay type in all cases: cell-based
CAL‐27 (oral carcinoma) = assay: Resazurin cell viability assay, CAL‐27; details: 50 µM; for inhibition at 50 µM: Homo sapiens, CAL-27
Description: (§1) The tongue squamous cell carcinoma cell line CAL‐27 (ATCC CRL‐2095), breast carcinoma BT‐20 (ATCC HTB‐19), gastric carcinoma HGC‐27 (BCRJ Code 0310), and normal oral fibroblast OHMF (culture of fibroblasts derived from human oral healthy mucosa, approved by the Research Ethics Committee of the University of São Paulo, Campus of Ribeirão Preto, Brazil (with protocol number 049) were cultured in DMEM medium (DMEM, Sigma‐Aldrich, St. Louis, MO, USA) supplemented with 10% fetal bovine serum and a solution of penicillin (100 U/mL) and streptomycin (100 μg/mL). The cultures were maintained in a humidified incubator with 5% CO₂ at 37°C.
(§2) Cell viability was analyzed using the resazurin assay. For this, cells were seeded in 96‐well plates (1 × 10^3 cells per well) and incubated at 37°C with 5% CO₂ overnight for cell adhesion. Subsequently, the cells were treated with different compounds (0–50 µM) for 72 h. After treatment, the medium was replaced with phenol‐free DMEM medium (Sigma‐Aldrich) containing resazurin at a concentration of 44 µM (Sigma‐Aldrich). After incubation for 4 h at 37°C, fluorescence detection was performed (excitation 530/25 nm, emission 590/35 nm) using a microplate fluorimeter (Synergy 2, Biotek). Initial cell growth inhibition assays were performed in triplicate or quadruplicate, while IC50 determinations were conducted in triplicate. Data were plotted, and IC₅₀ values were determined by nonlinear regression using GraphPad Prism software 9.0.
(§3) ^a Cell viability was assessed using the resazurin assay after 72 hours of compound treatment. Fluorescence was measured to estimate % of cellular growth inhibition at 50 µM values, based on triplicate experiments.
(§4) ^b IC50 values were determined using the same resazurin-based assay, with fluorescence measurements performed after 72 hours of treatment. These experiments were carried out in triplicate.

[1] = tested on: HGC‐27 (gastric carcinoma); assay: Resazurin cell viability assay, HGC‐27; details: 50 µM; for inhibition at 50 µM: Homo sapiens, HGC-27
Description: as §1, §2, §3, §4

human P2X7 receptor = target: T1, human P2X7 receptor (Homo sapiens, UniProt Q99572); assay: YO‐PRO‐1 dye uptake assay for the P2X7 receptor; details: for inhibition at 10 µM: P2X7, read-out: % Inhibition of P2X7R at 10 µM compounds’ concentration
T1 construct: host or cells: HEK-293
T1 sequence (Q99572 1-595): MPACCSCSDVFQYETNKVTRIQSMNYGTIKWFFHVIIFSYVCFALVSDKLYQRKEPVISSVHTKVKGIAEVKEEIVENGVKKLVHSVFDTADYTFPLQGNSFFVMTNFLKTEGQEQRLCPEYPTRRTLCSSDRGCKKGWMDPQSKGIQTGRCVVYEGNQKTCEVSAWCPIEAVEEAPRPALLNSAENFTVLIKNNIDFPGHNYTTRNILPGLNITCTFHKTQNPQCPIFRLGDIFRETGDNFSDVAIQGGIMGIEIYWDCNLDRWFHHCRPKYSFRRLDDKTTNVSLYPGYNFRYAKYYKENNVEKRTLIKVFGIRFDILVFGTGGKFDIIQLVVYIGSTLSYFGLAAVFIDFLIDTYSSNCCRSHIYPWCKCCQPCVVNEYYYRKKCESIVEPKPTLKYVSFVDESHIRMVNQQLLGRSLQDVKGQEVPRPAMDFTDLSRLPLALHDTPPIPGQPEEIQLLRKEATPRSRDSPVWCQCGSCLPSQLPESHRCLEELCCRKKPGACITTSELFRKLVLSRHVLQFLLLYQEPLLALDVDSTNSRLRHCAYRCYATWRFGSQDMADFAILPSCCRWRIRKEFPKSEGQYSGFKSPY
Description: HEK‐293 cell lines stably expressing human P2X7 receptor (hP2X7R‐HEK‐293, B'SYS GmbH, Witterswil, Switzerland) were maintained in a 50/50 mix of Dulbecco's Modified Eagle Medium and F12 medium (DMEM/F12) supplemented with 9% (v/v) FCS, 1% (v/v) Penicillin/Streptomycin (10000 I.U./mL, 10 mg/mL in 0.9% NaCl) and G418 (100 µg/mL) at 37°C and 5% CO2. Cells were subcultured in cell culture 75 cm^2 flasks and split every 2‐4 days (1:3; 1:6; 1:10) once confluent.
HEK‐293 cell lines stably expressing human P2X7 receptor were seeded into black‐walled Nunc 96‐well optical bottom plates (Thermo Fisher Scientific) at 2.0–4.0 × 10^4 cells/well and incubated at 37°C for 24–48 h. After removing the culture medium, cells were washed with 100 µL wash buffer (280 mM Sucrose; 5.6 mM KCl; 0.5 mM CaCl2; 10 mM D‐Glucose; 10 mM HEPES; 5 mM N‐Methyl‐D‐glucamine (pH 7.4)). Then, 50 µL assay buffer (280 mM Sucrose; 6.4 mM KCl, 10 mM D‐Glucose; 10 mM HEPES; 5.0 mM N‐Methyl‐D‐glucamine (pH 7.4)) and 50 µL of antagonist dilutions (10^–5–10^–9 M) in assay buffer were added, and the cells were incubated at 37°C for 30 min. […] Finally, the uptake of YO‐PRO‐1 dye was recorded in a 9‐point‐well scan by following the fluorescence change using a FlexStation 3 Multi‐Mode Microplate Reader (Molecular Devices, San Jose, CA, USA, Software SoftMax7 Pro, endpoint protocol, well scan with reading pattern “fill scan”, λ ex = 485 nm, λ em = 535 nm). To determine the concentration‐dependent uptake inhibition by antagonists, the YO‐PRO‐1 uptake, expressed as RFU, was plotted against the concentrations of the compounds.

human P2X4 receptor = target: T2, human P2X4 receptor (Homo sapiens, UniProt Q99571); assay: Ca2+‐flux assay for the hP2X4 receptor; details: read-out: % Inhibition of P2X4R at 10 µM compounds’ concentration
T2 construct: expressed in transfected cells; host or cells: human 1321N1 astrocytoma cells
T2 sequence (Q99571 1-388): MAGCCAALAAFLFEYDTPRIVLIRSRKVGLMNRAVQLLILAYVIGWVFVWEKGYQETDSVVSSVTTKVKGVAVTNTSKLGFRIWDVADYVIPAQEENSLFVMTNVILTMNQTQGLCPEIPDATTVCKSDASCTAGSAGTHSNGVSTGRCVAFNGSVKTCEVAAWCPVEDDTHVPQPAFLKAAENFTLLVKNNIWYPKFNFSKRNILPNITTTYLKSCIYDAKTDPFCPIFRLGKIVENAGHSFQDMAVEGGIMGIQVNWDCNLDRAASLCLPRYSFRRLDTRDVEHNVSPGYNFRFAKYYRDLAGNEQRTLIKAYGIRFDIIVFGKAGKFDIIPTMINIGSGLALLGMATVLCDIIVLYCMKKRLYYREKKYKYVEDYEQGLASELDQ
Description: Human 1321N1 astrocytoma cells stably expressing the human P2X4 receptor (generated in‐house) were cultured in Dulbecco's Modified Eagle Medium supplemented with 9% (v/v) FCS, 1% (v/v) Penicillin/Streptomycin (10000 I.U./mL, 10 mg/mL in 0.9% NaCl) and puromycin (1 µg/mL) as a selection antibiotic at 37°C and 5% CO2. Cells were subcultured in cell culture 75 cm^2 flasks and split every 2–4 days (1:5; 1:6) once confluent.
1321N1 cells stably expressing human P2X4 receptor were seeded into black‐walled 96‐well plates (Thermo Fisher Scientific) at 2.5 × 10^4 cells/well and incubated at 37°C for 24–48 h. All test compounds were diluted in assay buffer solution (SBS: 135 mM NaCl; 5 mM KCl; 1 mM MgCl2.6 H2O; 1.8 mM CaCl2; 5.6 mM D‐Glucose; 10 mM HEPES, 0.1% (m/v) BSA, 0.05% (m/v) gelatine, 2.3 mM probenecid). The culture medium was removed, and 100 µL of 4 μM fluorescent Ca^2+ indicator Calbryte520AM in SBS was added and incubated at 37°C for 1 h. The dye solution was then removed, 100 µL of SBS solution and 50 µL of antagonist dilutions (10^–5–10^–9 M) in SBS were added, and the cells were incubated at room temperature for an extra 30 min. Finally, 50 µL of ATP (at a concentration of the previously determined EC50‐ value) was added by using FlexStation 3 Multi‐Mode Microplate Reader (Molecular Devices, San Jose, CA, USA, Software SoftMax7 Pro). The changes in intracellular Ca^2+ ion concentrations were monitored over 200 s (20 s baseline) by measuring the fluorescence signal at λ ex = 494 nm and λ em = 516 nm ([…] cut‐off). The concentration‐dependent decrease in Ca^2+‐flux, expressed as RFU, was plotted against the concentrations of the compounds.

BT‐20 (breast carcinoma) = assay: Resazurin cell viability assay, BT‐20; details: 50 µM; for inhibition at 50 µM: Homo sapiens, BT-20
Description: as §1, §2, §3, §4

[2] = 72 h, mean ± SD, n = 3, read-out: % Cellular growth inhibition (at 50 µM) CAL‐27
[3] = 72 h, mean ± SD, n = 3, read-out: % Cellular growth inhibition (at 50 µM) HGC‐27
[4] = 72 h, mean ± SD, n = 3, read-out: % Cellular growth inhibition (at 50 µM) BT‐20
[5] = 72 hours, triplicate, read-out: % Cellular growth inhibition (at 50 µM) CAL-27 (supplement)
[6] = 72 hours, triplicate, read-out: % Cellular growth inhibition (at 50 µM) HGC-27 (supplement)
[7] = 72 hours, triplicate, read-out: % Cellular growth inhibition (at 50 µM) BT-20 (supplement)

inhibition at 10 µM (human P2X7 receptor) [%]	inhibition at 10 µM (human P2X4 receptor) [%]	Molecule	inhibition at 50 µM (CAL‐27 (oral carcinoma); [2]) [%]	inhibition at 50 µM [1, 3] [%]	inhibition at 50 µM (BT‐20 (breast carcinoma); [4]) [%]	also measured
5	4	COc1ccc(CC(=O)c2cc(OC)c(OC)c(OC)c2)nc1 [Compound 5f, 2‐(5‐methoxypyridin‐2‐yl)‐1‐(3,4,5‐trimethoxyphenyl)ethenone]	67 ± 2.7	48 ± 4.9	52 ± 4.2	–
–	–	COc1cc(C(=O)Cc2ccccn2)cc(OC)c1OC [Compound 4f, 2‐(pyridin‐2‐yl)‐1‐(3,4,5‐trimethoxyphenyl)ethenone]	20 ± 2.2	10 ± 0.7	19 ± 1.2	–
–	–	O=C(Cc1ccccn1)c1ccccc1 [Compound 4a, 1‐phenyl‐2‐(pyridin‐2‐yl)ethanone]	–	–	–	inhibition at 50 µM (CAL‐27 (oral carcinoma); [5]): 12.2 ± 2%; inhibition at 50 µM [1, 6]: 2.4 ± 0.9%; inhibition at 50 µM (BT‐20 (breast carcinoma); [7]): 7.5 ± 0.5%
–	–	O=C(Cc1ccccn1)c1ccc(Cl)c(Cl)c1 [Compound 4e, 1‐(3,4‐dichlorophenyl)‐2‐(pyridin‐2‐yl)ethanone]	–	–	–	inhibition at 50 µM (CAL‐27 (oral carcinoma); [5]): 22.3 ± 1.3%; inhibition at 50 µM [1, 6]: 36.9 ± 0.8%; inhibition at 50 µM (BT‐20 (breast carcinoma); [7]): 43.3 ± 0.6%
–	–	O=C(NCC12CC3CC(CC(C3)C1)C2)c1cc(CCCNCCCO)ccc1Cl [AZD9056, reference compound]	–	–	–	IC50 (human P2X7 receptor; reference compound, same conditions, read-out: pIC50 at P2X7R (converted)): 10.5 nM
–	–	O=C(Cc1ccccn1)c1ccc(Cl)cc1 [Compound 4b, 1‐(4‐chlorophenyl)‐2‐(pyridin‐2‐yl)ethanone]	–	–	–	inhibition at 50 µM (CAL‐27 (oral carcinoma); [5]): 11.4 ± 0.4%; inhibition at 50 µM [1, 6]: 16.1 ± 1.6%; inhibition at 50 µM (BT‐20 (breast carcinoma); [7]): 17.3 ± 1.8%
–	–	O=C(c1ccccc1)c1ccn2ccccc12 [Compound 6a, (Indolizin‐1‐yl)(phenyl)methanone]	15 ± 0.8	20 ± 1.1	26 ± 1	–
–	–	2‐(pyridin‐2‐yl)‐1‐(p‐tolyl)ethanone [Compound 4d]	–	–	–	% Cellular growth inhibition (at 50 µM) CAL-27 (supplement) (CAL‐27 (oral carcinoma); 72 hours, triplicate): 12.6 ± 1.2%; % Cellular growth inhibition (at 50 µM) HGC-27 (supplement) ([1]; 72 hours, triplicate): 17.3 ± 1.2%; % Cellular growth inhibition (at 50 µM) BT-20 (supplement) (BT‐20 (breast carcinoma); 72 hours, triplicate): 17.4 ± 0.6%
–	–	COc1cc(C(=O)c2ccn3ccccc23)cc(OC)c1OC [Compound 6f, (Indolizin‐1‐yl)(3,4,5‐Trimethoxyphenyl)Methanone]	57 ± 0.9	38 ± 1.6	43 ± 0.5	–
–	–	1‐(4‐methoxyphenyl)‐2‐(pyridin‐2‐yl)ethanone [Compound 4c]	–	–	–	% Cellular growth inhibition (at 50 µM) CAL-27 (supplement) (CAL‐27 (oral carcinoma); 72 hours, triplicate): 9.0 ± 0.8%; % Cellular growth inhibition (at 50 µM) HGC-27 (supplement) ([1]; 72 hours, triplicate): 14.1 ± 1.8%; % Cellular growth inhibition (at 50 µM) BT-20 (supplement) (BT‐20 (breast carcinoma); 72 hours, triplicate): 13.7 ± 0.7%
2	8	COc1ccc(C(=O)c2ccn3cc(OC)ccc23)cc1 [Compound 7d, (6‐methoxyindolizin‐1‐yl)(4‐methoxyphenyl)methanone]	15 ± 1.1	1 ± 1	7 ± 0.9	–
-6	-7	COc1ccc2c(C(=O)c3ccccc3)ccn2c1 [Compound 7a, (6‐methoxyindolizin‐1‐yl)(phenyl)methanone]	20 ± 0.9	18 ± 0.5	20 ± 0.4	–
4	1	COc1ccc2c(C(=O)c3ccc(Cl)cc3)ccn2c1 [Compound 7b, (4‐chlorophenyl)(6‐methoxyindolizin‐1‐yl)methanone]	23 ± 1	10 ± 1.4	8 ± 1.3	–

Molecule	inhibition at 10 µM (human P2X7 receptor) [%]	inhibition at 10 µM (human P2X4 receptor) [%]	inhibition at 50 µM (CAL‐27 (oral carcinoma); [2]) [%]	inhibition at 50 µM [1, 3] [%]	inhibition at 50 µM (BT‐20 (breast carcinoma); [4]) [%]	also measured
CCCCCc1cn2cc(OC)ccc2c1C(=O)c1cc(OC)c(OC)c(OC)c1 [Compound 8i, (6‐methoxy‐2‐pentylindolizin‐1‐yl)(3,4,5‐trimethoxyphenyl)methanone]	6	-1	57 ± 2.5	61 ± 1.5	38 ± 3.5	–
